Assays:
Format in all cases: in vivo
[1] = system: corn (Zea mays); assay: Test B pre-/postemergence plant response
How it was run: (§1)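 Preemergence and postemergence (plants 2-18 cm, 1- to 4-leaf stage) applications used test chemicals in a non-phytotoxic solvent with surfactant. Plants were held in a greenhouse 13 to 15 days, then rated visually against controls on a 0-100 scale (0 no effect, 100 complete control).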

[2] = system: giant foxtail (Setaria faberii); assay: Test B pre-/postemergence plant response
How it was run: as §1

[3] = system: downy bromegrass (Bromus tectorum); assay: Test B pre-/postemergence plant response
How it was run: as §1

[4] = system: large crabgrass (Digitaria sanguinalis); assay: Test B pre-/postemergence plant response
How it was run: as §1

[5] = system: pigweed (Amaranthus retroflexus); assay: Test B pre-/postemergence plant response
How it was run: as §1

[6] = system: woolly cupgrass (Eriochloa villosa); assay: Test B pre-/postemergence plant response
How it was run: as §1

[7] = system: eastern black (E.B.) nightshade (Solanum ptycanthum); assay: Test B pre-/postemergence plant response; conditions: Preemergence
How it was run: as §1

[8] = system: wild oat (Avena fatua); assay: Test B pre-/postemergence plant response
How it was run: as §1

[9] = system: Russian thistle (Salsola iberica); assay: Test B pre-/postemergence plant response; conditions: Preemergence
How it was run: as §1

[10] = system: green foxtail (Setaria viridis); assay: Test B pre-/postemergence plant response
How it was run: as §1

[11] = system: umbrella sedge (Cyperus difformis); assay: Test B flooded paddy test plant response
How it was run: (§2)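 2-leaf plants; pots flooded 3 cm above soil; compound added to paddy water; depth maintained. Greenhouse 13–15 d. Visual rating vs controls, 0 (no effect) to 100 (complete control); dash = no result.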

[12] = system: rice (Oryza sativa); assay: Test B flooded paddy test plant response
How it was run: as §2

[13] = system: barnyardgrass (Echinochloa crus-galli); assay: Test B flooded paddy test plant response
How it was run: as §2

[14] = system: ducksalad (Heteranthera limosa); assay: Test B flooded paddy test plant response
How it was run: as §2

[15] = 8 g ai/ha, postemergence, 0-100 scale
[16] = Postemergence, 16 g ai/ha, scale 0 to 100
[17] = Postemergence, 31 g ai/ha, scale 0 to 100
[18] = Postemergence, 62 g ai/ha, scale 0 to 100, 0 no effect, 100 complete control
[19] = Preemergence, 8 g ai/ha, scale 0 to 100 (0 no effect, 100 complete control)
[20] = Preemergence, 31 g ai/ha, scale 0 to 100 (0 no effect, 100 complete control)
[21] = Preemergence, 62 g ai/ha, 0 to 100 scale, 0 no effect, 100 complete control
[22] = Preemergence, 16 g ai/ha, scale 0 to 100
[23] = 16 g ai/ha, postemergence, 0-100 scale
[24] = 8 g ai/ha, scale 0 to 100 (0 no effect, 100 complete control)
[25] = 31 g ai/ha, scale 0 to 100 (0 no effect, 100 complete control)
[26] = 62 g ai/ha, 0 to 100 scale, 0 no effect, 100 complete control
[27] = Flood (flooded paddy test), 62 g ai/ha, scale 0 to 100, 0 no effect, 100 complete control
[28] = Flood (flooded paddy test), 125 g ai/ha, scale 0 to 100, 0 no effect, 100 complete control
[29] = Flood (flooded paddy test), 250 g ai/ha, scale 0 to 100, 0 no effect, 100 complete control
[30] = Flood, 31 g ai/ha, scale 0 to 100

In the case of `Cc1nn(C)c(=O)c(-n2nc(-c3ccc(Br)cc3)cc2C)c1O` [Compound 81], the “Corn plant response rating” value [1, 15] is reported as 45, the “Plant response rating, Corn” value [1, 16] is reported as 100 and the “Plant response rating, Corn” value [1, 17] is reported as 100. For the same compound, the “Plant response rating, Corn” value [1, 18] was 100, the “Corn plant response rating” value [1, 19] was 65 and the “Plant response rating, Corn” value [1, 20] was 98. For the same compound, the “Plant response rating, Corn” value [1, 21] was 100, the “Corn plant response rating” value [1, 22] was 70 and the “Foxtail, Giant plant response rating” value [2, 15] was 80. For the same compound, the “Plant response rating, Foxtail, Giant” value [2, 16] was 85, the “Plant response rating, Foxtail, Giant” value [2, 17] was 98 and the “Plant response rating, Foxtail, Giant” value [2, 18] was 100. For the same compound, the “Foxtail, Giant plant response rating” value [2, 19] was 80, the “Plant response rating, Foxtail, Giant” value [2, 20] was 100 and the “Plant response rating, Foxtail, Giant” value [2, 21] was 100. The “Foxtail, Giant plant response rating” value [2, 22] was 100, the “Bromegrass, Downy plant response rating” value [3, 15] was 0 and the “Plant response rating, Bromegrass, Downy” value [3, 16] was 45. For the same compound, the “Plant response rating, Bromegrass, Downy” value [3, 17] was 50, the “Plant response rating, Bromegrass, Downy” value [3, 18] was 70 and the “Bromegrass, Downy plant response rating” value [3, 19] was 20. For the same compound, the “Plant response rating, Bromegrass, Downy” value [3, 20] was 70, the “Plant response rating, Bromegrass, Downy” value [3, 21] was 85 and the “Bromegrass, Downy plant response rating” value [3, 22] was 70. For the same compound, the “Crabgrass, Large plant response rating” value [4, 15] was 50, the “Plant response rating, Crabgrass, Large” value [4, 16] was 98 and the “Plant response rating, Crabgrass, Large” value [4, 17] was 100. The “Plant response rating, Crabgrass, Large” value [4, 18] was 100, the “Crabgrass, Large plant response rating” value [4, 19] was 65 and the “Plant response rating, Crabgrass, Large” value [4, 20] was 100. For the same compound, the “Plant response rating, Crabgrass, Large” value [4, 21] was 100, the “Crabgrass, Large plant response rating” value [4, 22] was 98 and the “Pigweed plant response rating” value [5, 15] was 0. For the same compound, the “Pigweed plant response rating” value [5, 23] was 0, the “Plant response rating, Pigweed” value [5, 17] was 0 and the “Plant response rating, Pigweed” value [5, 18] was 0. For the same compound, the “Pigweed plant response rating” value [5, 19] was 0, the “Plant response rating, Pigweed” value [5, 20] was 0 and the “Plant response rating, Pigweed” value [5, 21] was 55. For the same compound, the “Pigweed plant response rating” value [5, 22] was 0, the “Cupgrass, Woolly plant response rating” value [6, 15] was 75 and the “Plant response rating, Cupgrass, Woolly” value [6, 16] was 85. For the same compound, the “Plant response rating, Cupgrass, Woolly” value [6, 17] was 95, the “Plant response rating, Cupgrass, Woolly” value [6, 18] was 98 and the “Cupgrass, Woolly plant response rating” value [6, 19] was 20. The “Plant response rating, Cupgrass, Woolly” value [6, 20] was 95, the “Plant response rating, Cupgrass, Woolly” value [6, 21] was 98 and the “Cupgrass, Woolly plant response rating” value [6, 22] was 45. For the same compound, the “Nightshade, E. B. plant response rating” value [7, 24] was 0, the “Plant response rating, Nightshade, E. B.” value [7, 25] was 0 and the “Plant response rating, Nightshade, E. B.” value [7, 26] was 50. The “Nightshade, E. B. plant response rating” value ([7]; 16 g ai/ha, scale 0 to 100) was 0, the “Oat, Wild plant response rating” value [8, 15] was 80 and the “Oat, Wild plant response rating” value [8, 23] was 95. The “Plant response rating, Oat, Wild” value [8, 17] was 100, the “Plant response rating, Oat, Wild” value [8, 18] was 100 and the “Oat, Wild plant response rating” value [8, 19] was 45. For the same compound, the “Plant response rating, Oat, Wild” value [8, 20] was 70, the “Plant response rating, Oat, Wild” value [8, 21] was 85 and the “Oat, Wild plant response rating” value [8, 22] was 60. For the same compound, the “Russian Thistle plant response rating” value [9, 24] was 0, the “Plant response rating, Russian Thistle” value [9, 25] was 0 and the “Plant response rating, Russian Thistle” value [9, 26] was 0. For the same compound, the “Russian Thistle plant response rating” value ([9]; 16 g ai/ha, scale 0 to 100) was 0, the “Foxtail, Green plant response rating” value [10, 15] was 85 and the “Plant response rating, Foxtail, Green” value [10, 16] was 90. The “Plant response rating, Foxtail, Green” value [10, 17] was 95, the “Plant response rating, Foxtail, Green” value [10, 18] was 98 and the “Foxtail, Green plant response rating” value [10, 19] was 40. For the same compound, the “Plant response rating, Foxtail, Green” value [10, 20] was 100, the “Plant response rating, Foxtail, Green” value [10, 21] was 100 and the “Foxtail, Green plant response rating” value [10, 22] was 80. The “Plant response rating, Sedge, Umbrella” value [11, 27] was 0, the “Plant response rating, Sedge, Umbrella” value [11, 28] was 0 and the “Plant response rating, Sedge, Umbrella” value [11, 29] was 0. For the same compound, the “Plant response rating, Sedge, Umbrella” value [11, 30] was 0, the “Plant response rating, Rice” value [12, 27] was 0 and the “Plant response rating, Rice” value [12, 28] was 0. For the same compound, the “Plant response rating, Rice” value [12, 29] was 0, the “Plant response rating, Rice” value [12, 30] was 0 and the “Plant response rating, Barnyardgrass” value [13, 27] was 0. The “Plant response rating, Barnyardgrass” value [13, 28] was 0, the “Plant response rating, Barnyardgrass” value [13, 29] was 0 and the “Plant response rating, Barnyardgrass” value [13, 30] was 0. For the same compound, the “Plant response rating, Ducksalad” value [14, 27] was 0, the “Plant response rating, Ducksalad” value [14, 28] was 0 and the “Plant response rating, Ducksalad” value [14, 29] was 0. The “Plant response rating, Ducksalad” value [14, 30] was 0.

Source: US20100267561A1, “HERBICIDAL PYRIDAZINONE DERIVATIVES” (priority 2007, published 2010)
